# Assay results published in patent EP4692072A1, “PHOTOCHROMIC COMPOUND, PROPARGYL ALCOHOL COMPOUND, CURABLE COMPOSITION, OPTICAL ARTICLE, LENS, AND SPECTACLES” (TOKUYAMA CORPORATION, priority 2023, dated 2024).
# Experiment: Photochromic properties of photochromic laminate (plastic lens) prepared by coating method
# Type: physicochemical
# Conditions: 40 µm photochromic layer on thiourethane lens, 0.25 mmol compound per 100 g monomers, after color development
# Excerpt: First, the photochromic compound obtained in Example 1, a photoinitiator, and a polymerizable compound were mixed to obtain a curable composition.
# Polyethylene glycol dimethacrylate (average molecular weight: 736): 42 parts by mass • Polyethylene glycol dimethacrylate (average molecular weight: 536): 12 parts by mass • Trimethylolpropane trimethacrylate: 38 parts by mass γ-methacryloyloxypropyl trimethoxysilane: 2 parts by mass Glycidyl methacrylate: 1 part by mass
# Note that the photochromic compound was added to the curable composition so that the amount of the photochromic compound was 0.25 mmol based on 100 g of the total amount of the radical-polymerizable monomers.
# Phenylbis(2,4,6-trimethylbenzoyl)phosphine oxide (photoinitiator: Omnirad 819): 0.3 parts by mass Ethylene bis(oxyethylene) bis[3-(5-tert-butyl-4-hydroxy-m-tolyl)propionate] (stabilizer, Irganox 245): 1 part by mass Bis(1,2,2,6,6-pentamethyl-4-piperidyl) sebacate: 3 parts by mass Leveling agent (L7001) manufactured by Dow Corning Toray Co.,Ltd.: 0.1 part by mass
# First, a thiourethane-based plastic lens having a central thickness of 2 mm and a refractive index of 1.60 was prepared as the optical substrate. Note that this thiourethane-based plastic lens was pre-treated by alkaline etching with a 10% sodium hydroxide aqueous solution at 50°C for 5 minutes, followed by sufficient washing with distilled water.
# A surface of the above-described plastic lens was coated with a moisture-curable primer (product name: TR-SC-P, manufactured by Tokuyama Corporation) at a rotation frequency of 70 rpm for 15 seconds, followed by 1000 rpm for 10 seconds, using a spin coater (1H-DX2, manufactured by MIKASA CO., LTD), Subsequently, about 2 g of the photochromic curable composition obtained above was spin-coated at a rotation frequency of 60 rpm for 40 seconds, followed by 600 rpm for 10 to 20 seconds, to form a photochromic coating layer with a film thickness of 40 µm.
# The lens with the surface coated with the photochromic curable composition (photochromic coating layer) was irradiated with light using a metal halide lamp with an output power of 200 mW/cm^2 in a nitrogen gas atmosphere for 90 seconds to cure the coating film. Subsequently, the lens was further heated at 110°C for 1 hour to prepare a photochromic laminate having a photochromic layer.
# In the same manner as in Example 26, photochromic laminates were prepared using the photochromic compounds obtained in Examples 2 to 25.
# • [1] Maximum Absorption Wavelength (λmax): The maximum absorption wavelength after color development, measured using a spectrophotometer (instantaneous multichannel photodetector MCPD3000) manufactured by Otsuka Electronics Co., Ltd. was used as an indicator for the color tone during the color development. • [2] 23°C Color Optical Density (A23): A difference between an absorbancy measured after light irradiation at 23°C for 300 seconds {ε(300)} and an absorbancy without light irradiation ε(0) at the maximum absorption wavelength was used as an indicator for the color optical density. […] 23°C color fading half-life [τ1/2 (sec.)]: A time required for the absorbancy of the sample at the maximum absorption wavelength to decrease to 1/2 of {ε(300)-ε(0)} when the light irradiation was terminated after the light irradiation at 23°C for 300 seconds, was used as an indicator for the color fading speed. The shorter this time, the higher the color fading speed. • [4] Residual rate (A120/A0×100): The obtained photochromic plastic lens was subjected to accelerated deterioration using a xenon weather meter X25 manufactured by Suga Test Instruments Co., Ltd. for 120 hours. Subsequently, the color optical density was evaluated before and after the test, then a color optical density before the test (A0) and a color optical density after the test (A120) were measured, and a ratio (A120/A0) was defined as a residual rate. The residual rate was used as an indicator for a color developing durability. […]
Maximum absorption wavelength,SMILES,also measured
509 nm,CCCc1ccc(C2(c3ccc(N(C)c4ccccc4)cc3)C=Cc3c4c(c5cc(Sc6c(C)cccc6C)c(OC)cc5c3O2)-c2ccccc2C42CC(C)(C)CC(C)(C)C2)cc1 (centres unmarked) [Example 5],Maximum absorption wavelength (listed as Formula (51)): 591 nm
493 nm,CCCC1(CCC)c2cc(OC(F)(F)F)ccc2-c2c1c1c(c3cc(OC)c(Sc4c(C)cccc4C)cc23)OC(c2ccc(N(C)c3ccccc3)cc2)(c2ccc(OC)c(OC)c2)C=C1 (centres unmarked) [Example 57],Maximum absorption wavelength (listed as Formula (110)): 615 nm
502 nm,COc1ccc(C2(c3ccc(N(C)c4ccccc4)cc3)C=Cc3c4c(c5cc(-c6ccc(N7CCOCC7)cc6)c(OC)cc5c3O2)-c2ccccc2C4(C)C)cc1 (centres unmarked) [Example 1],Maximum absorption wavelength (listed as Formula (37)): 601 nm
496 nm,CCCC1(CCC)c2ccccc2-c2c1c1c(c3cc(OC)c(-c4ccc(OC)cc4OC)cc23)OC(c2ccc(N(C)c3ccccc3)cc2)(c2ccc(OC)c(F)c2)C=C1 (centres unmarked) [Example 7],Maximum absorption wavelength (listed as Formula (55)): 603 nm
477 nm,COCCCCC1(CCCCOC)c2ccccc2-c2c1c1c(c3cc(-c4ccc(OC)cc4OC)c(OC)cc23)OC(c2ccc(N(C)c3ccccc3)cc2)(c2ccc3c(c2)CCO3)C=C1 (centres unmarked) [Example 62],Maximum absorption wavelength (listed as Formula (124)): 587 nm
504 nm,CCCC1(CCC)c2ccccc2-c2c1c1c(c3cc(OC)c(-c4ccc(N(C)c5ccccc5)cc4)cc23)OC(c2ccc(C)cc2)(c2ccc(N(C)c3ccccc3)cc2)C=C1 (centres unmarked) [Example 24],Maximum absorption wavelength (listed as Formula (86)): 599 nm
492 nm,COCCN(c1ccccc1)c1ccc(C2(c3ccc4c(c3)OCCO4)C=Cc3c4c(c5cc6c(cc5c3O2)SC(C)(C)O6)-c2ccccc2C42CCC3(CCCCC3)CC2)cc1 (centres unmarked) [Example 14],Maximum absorption wavelength (listed as Formula (72)): 586 nm
474 nm,COCCOCCC1(CCOCCOC)c2cc(C)ccc2-c2c1c1c(c3cc(C)ccc23)OC(c2ccc(N(C)c3ccc(F)cc3)cc2)(c2ccc(OC)c(OC)c2)C=C1 (centres unmarked) [Example 8],Maximum absorption wavelength (listed as Formula (57)): 597 nm
470 nm,CCCC1(CCC)c2cc(OC)ccc2-c2c1c1c(c3cc(OC)ccc23)OC(c2ccc(OC)cc2)(c2ccc(N(C)c3ccccc3)cc2)C=C1 (centres unmarked) [Example 3],Maximum absorption wavelength (listed as Formula (46)): 612 nm
489 nm,CCCCC1(CCCC)c2cc(-c3ccc(OC(C)C)cc3)ccc2-c2c1c1c(c3cc(OC)ccc23)OC(c2ccc(N(C)c3ccccc3)cc2)(c2ccc(OC)c(F)c2)C=C1 (centres unmarked) [Example 21],Maximum absorption wavelength (listed as Formula (83)): 609 nm
477 nm,COCCCCC1(CCCCOC)c2cc(Sc3c(C)cccc3C)ccc2-c2c1c1c(c3cc(OC)ccc23)OC(c2ccc(OC)cc2)(c2ccc(N(C)c3ccc(OC)cc3)cc2)C=C1 (centres unmarked) [Example 11],Maximum absorption wavelength (listed as Formula (65)): 614 nm
472 nm,CCC1(CC)CCC2(CC1)c1cc(OC(F)(F)F)ccc1-c1c2c2c(c3cc(OC)ccc13)OC(c1ccc(N(C)c3ccccc3)cc1)(c1ccc(OC)c(C)c1)C=C2 (centres unmarked) [Example 16],Maximum absorption wavelength (listed as Formula (77)): 584 nm
512 nm,CCCCN(c1ccccc1)c1ccc(C2(c3ccc(C)cc3)C=Cc3c4c(c5cc(N6CCOCC6)c(OC)cc5c3O2)-c2ccccc2C4(CC)CC)cc1 (centres unmarked) [Example 10],Maximum absorption wavelength (listed as Formula (62)): 598 nm
506 nm,COCCC1(CCOC)c2ccccc2-c2c1c1c(c3cc(OC)c(-c4ccc(N(c5ccccc5)c5ccccc5)cc4)cc23)OC(c2ccc(Oc3ccccc3)cc2)(c2ccc(N(C)c3ccccc3)cc2)C=C1 (centres unmarked) [Example 23],Maximum absorption wavelength (listed as Formula (85)): 609 nm
494 nm,CCCC1(CCC)c2ccccc2-c2c1c1c(c3cc(OC)c(-c4ccc(OC)cc4OC)cc23)OC(c2ccc(C)cc2)(c2ccc(N(C)c3ccccc3)cc2)C=C1 (centres unmarked) [Example 19],Maximum absorption wavelength (listed as Formula (80)): 604 nm
505 nm,CCN(c1ccc(OC)cc1)c1ccc(C2(c3ccc(OC)cc3)C=Cc3c4c(c5cc(-c6ccc(N7CCOCC7)cc6)c(OC)cc5c3O2)-c2ccccc2C4(C)C)cc1 (centres unmarked) [Example 25],Maximum absorption wavelength (listed as Formula (88)): 605 nm
482 nm,COCCOCCOCCOCCC1(CCOCCOCCOCCOC)c2cc(C(F)(F)F)ccc2-c2c1c1c(c3cc(OC)c(OC)cc23)OC(c2ccc(OC)cc2)(c2ccc(N(C)c3ccccc3)cc2)C=C1 (centres unmarked) [Example 51],Maximum absorption wavelength (listed as Formula (89)): 603 nm
500 nm,CCCCOCCC1(CCOCCCC)c2ccccc2-c2c1c1c(c3cc(OC)c(NC(=O)c4ccccc4)cc23)OC(c2ccc(N(C)c3ccccc3)cc2)(c2ccc(OC)c(F)c2)C=C1 (centres unmarked) [Example 53],Maximum absorption wavelength (listed as Formula (95)): 605 nm

SMILES,Maximum absorption wavelength,also measured
COc1ccc(N(C)c2ccc(C3(c4ccc(CCO[Si](C)(C)CC[Si](O[Si](C)(C)C)(O[Si](C)(C)C)O[Si](C)(C)C)cc4)C=Cc4c5c(c6cc(N(C)c7ccccc7)c(OC)cc6c4O3)-c3ccc(C(F)(F)F)cc3C53CCC(C)(C)CC3)cc2)cc1 (centres unmarked) [Example 60],523 nm,Maximum absorption wavelength (listed as Formula (121)): 582 nm
